Assays:
DU-145 = test: NCI-60 screen (SRB), prostate cancer; conditions: Homo sapiens; for IC50: DU-145; for CC50: DU-145, read-out: LC50
NCI-H322M = test: NCI-60 screen (SRB), non-small cell lung cancer; type: cell-based; conditions: Homo sapiens; for IC50: five-dose screen; for CC50: read-out: LC50
Procedure: All compounds selected by the US National Cancer Institute (NCI) were initially tested at a single dose (10^−5 M) on the full panel of 60 cancer cell lines represented by leukemia, melanoma, lung, colon, central nervous system (CNS), ovarian, kidney, prostate and breast cancer. Only compounds that were able to satisfy the predetermined inhibition criteria against a minimum number of cell lines proceeded to five-dose assays ([…], 0.1 and 0.01 μM).
In these studies, human cancer cell lines were cultured in a RPMI-1640 medium containing 5% fetal bovine serum and 2 mM of L-glutamine. Following the protocol for a typical assay, cells were inoculated into 96-well plates and incubated at 37 °C, 5% CO2, 95% air, and 100% relative humidity for 24 h prior to the addition of the compounds to be tested. After 24 h, two plates of each cell line were fixed in situ with trichloroacetic acid (TCA) to represent a measure of the cell population for each cell line at the time of sample addition (Tz). Compounds were dissolved in DMSO to 400-fold the maximum desired concentration for analysis and subsequently diluted to twice the maximum desired concentration with medium containing 50 μg/mL gentamicin. An additional series of four dilutions at 10-fold concentration was performed to provide a total of five concentrations of the compound plus the control. Aliquots of 100 μL of these dilutions were taken and added to 96-well plates already containing 100 μL of the medium, resulting in the final required concentrations of the sample. The plates were incubated for 48 h at the same conditions. For adherent cells, the assay was terminated with the addition of cold TCA. Cells were fixed in situ by the slow addition of 50 μL of 50% (w/v) cold ATC (final concentration, 10% TCA) and incubated for 60 min at 4 °C. The supernatant was discarded, and the plates were washed five times with tap water and air dried. A quantity of 100 μL of 0.4% (w/v) sulforhodamine B (SRB) solution in 1% acetic acid was added to each well, and each plate was incubated for 10 min at room temperature. Upon completion of staining, unbound pigment was removed by five washes with 1% acetic acid and the plates were air-dried. The stains were solubilized with 10 mM Trizma base and absorbance was recorded on an automated plate reader at a wavelength of 515 nm. Using the absorbance measurements [time zero (Tz), growth control in the absence of the sample and growth test in the presence of the sample at the five concentration levels (Ti)], the percent growth was calculated for each sample at the concentration levels. The percent growth was calculated as: [(Ti − Tz)/(C − Tz)] × 100 for concentrations for which Ti > Tz, and [(Ti − Tz)/Tz] × 100 for concentrations for which Ti < Tz. Two dose-response parameters were calculated for each compound. The 50% growth inhibition (GI50) was calculated from [(Ti − Tz)/(C − Tz)] × 100 = 50, which is the sample concentration at which the net increase in protein is 50% lower in treated cells (as measured by SRB staining) compared to the net increase in protein seen in control cells and the LC50 (sample concentration at which a 50% reduction in protein measured at the end of treatment compared to the beginning), indicating a net loss of cells; calculated from [(Ti − Tz)/Tz] × 100 = −50. Values were calculated for each of these two parameters if the activity level was reached; however, if the effect was not reached or was exceeded, the value for that parameter was expressed as greater or less than the maximum or minimum of the concentration tested.

SK-MEL-28 = test: NCI-60 screen (SRB), melanoma; conditions: Homo sapiens; for IC50: SK-MEL-28; for CC50: SK-MEL-28, read-out: LC50
HS 578T = test: NCI-60 screen (SRB), breast cancer; conditions: for IC50 / CC50: Homo sapiens, Hs-578T; for CC50: read-out: LC50
CAKI-1 = test: NCI-60 screen (SRB), renal cancer; conditions: Homo sapiens; for IC50: CAKI-1; for CC50: CAKI-1, read-out: LC50
T-47D = test: NCI-60 screen (SRB), breast cancer; conditions: Homo sapiens, T47D; for CC50: read-out: LC50
SN12C = test: NCI-60 screen (SRB), renal cancer; conditions: Homo sapiens; for CC50: read-out: LC50
786-0 = test: NCI-60 screen (SRB), renal cancer; conditions: Homo sapiens; for IC50: 786-0; for CC50: 786-0, read-out: LC50
SK-MEL-2 = test: NCI-60 screen (SRB), melanoma; conditions: for IC50 / CC50: Homo sapiens; for IC50: SK-MEL-2; for CC50: SK-MEL-2, read-out: LC50
K-562 = test: NCI-60 screen (SRB), leukemia; conditions: Homo sapiens; for IC50: K562; for CC50: K562, read-out: LC50
HT29 = test: NCI-60 screen (SRB), colon cancer; conditions: Homo sapiens; for IC50: HT-29; for CC50: HT-29, read-out: LC50
SNB-19 = test: NCI-60 screen (SRB), CNS cancer; conditions: Homo sapiens; for IC50: SNB-19; for CC50: SNB-19, read-out: LC50
SF-268 = test: NCI-60 screen (SRB), CNS cancer; conditions: Homo sapiens; for IC50: SF-268; for CC50: SF-268, read-out: LC50
ACHN = test: NCI-60 screen (SRB), renal cancer; conditions: Homo sapiens; for CC50: read-out: LC50
SK-OV-3 = test: NCI-60 screen (SRB), ovarian cancer; conditions: Homo sapiens; for IC50: SK-OV-3; for CC50: SK-OV-3, read-out: LC50
OVCAR-3 = test: NCI-60 screen (SRB), ovarian cancer; conditions: Homo sapiens; for IC50: OVCAR-3; for CC50: OVCAR-3, read-out: LC50
colon cancer cell lines = test: NCI-60 screen (SRB), colon cancer panel; type: cell-based; conditions: Homo sapiens, single dose 10 μM, read-out: GI (growth inhibition), range over panel
IGROV1 = test: NCI-60 screen (SRB), ovarian cancer; conditions: Homo sapiens; for IC50: IGROV-1; for CC50: IGROV-1, read-out: LC50
UACC-62 = test: NCI-60 screen (SRB), melanoma; conditions: Homo sapiens; for IC50: UACC-62; for CC50: UACC-62, read-out: LC50

Row | Structure (SMILES) | IC50 (DU-145) [µM] | CC50 (DU-145) [µM] | IC50 (NCI-H322M) [µM] | CC50 (NCI-H322M) [µM] | IC50 (SK-MEL-28) [µM] | CC50 (SK-MEL-28) [µM] | IC50 (HS 578T) [µM] | CC50 (HS 578T) [µM] | IC50 (CAKI-1) [µM] | CC50 (CAKI-1) [µM] | IC50 (T-47D) [µM] | CC50 (T-47D) [µM] | IC50 (SN12C) [µM] | CC50 (SN12C) [µM] | IC50 (786-0) [µM] | CC50 (786-0) [µM] | IC50 (SK-MEL-2) [µM] | CC50 (SK-MEL-2) [µM] | IC50 (K-562) [µM] | CC50 (K-562) [µM] | other results
1 | COc1cc(OC)c(S(N)(=O)=O)cc1C(=O)C=Cc1ccccc1 [Compound 17a, 5-Cinnamoyl-2,4-dimethoxybenzenesulfonamide] | 1.88 | 38.1 | 10.7 | 47.6 | 12.5 | 51 | 5.89 | > 100 | 1.86 | 39.5 | 2.09 | 51.6 | 3.49 | 43.8 | 4.82 | 63.2 | 12.6 | 55.9 | 1.5 | > 100 | IC50 (HT29): 4.02 µM; CC50 (HT29): 42.5 µM; IC50 (SNB-19): 14 µM; CC50 (SNB-19): 58 µM; IC50 (SF-268): 5.88 µM; CC50 (SF-268): 62.7 µM; IC50 (ACHN): 6.99 µM; CC50 (ACHN): 44.8 µM; IC50 (SK-OV-3): 14.4 µM; CC50 (SK-OV-3): 52.9 µM; IC50 (OVCAR-3): 2.71 µM; CC50 (OVCAR-3): 38.3 µM; inhibition at 10 µM (colon cancer cell lines): 72.5 to 96.2%; IC50 (IGROV1): 9.74 µM; CC50 (IGROV1): 77 µM; IC50 (UACC-62): 12.2 µM; CC50 (UACC-62): 59.4 µM
2 | COc1cc(OC)c(S(N)(=O)=O)cc1C(=O)/C=C/c1ccc(Cl)cc1 [Compound 17b, (E)-5-(3-(4-Chlorophenyl)acryloyl)-2,4-dimethoxybenzenesulfonamide] | 3.44 | 42.2 | 2.31 | 38.7 | 3.03 | 33.4 | > 100 | > 100 | 1.89 | 32.9 | 12.4 | 64.6 | 2.48 | 60.2 | 1.9 | 9.83 | 11.5 | 57.2 | 1.85 | > 100 | IC50 (HT29): 2.18 µM; CC50 (HT29): 9.97 µM; IC50 (SNB-19): 3.17 µM; CC50 (SNB-19): > 100 µM; IC50 (SF-268): 3.75 µM; CC50 (SF-268): > 100 µM; IC50 (ACHN): 3.16 µM; CC50 (ACHN): 33.4 µM; IC50 (SK-OV-3): 2.8 µM; CC50 (SK-OV-3): 35.4 µM; IC50 (OVCAR-3): 3.51 µM; CC50 (OVCAR-3): 66.8 µM; inhibition at 10 µM (colon cancer cell lines): 92.2 to 100%; IC50 (IGROV1): 2.95 µM; CC50 (IGROV1): > 100 µM; IC50 (UACC-62): 2.67 µM; CC50 (UACC-62): 40.8 µM
3 | COc1cc(OC)c(S(=O)(=O)N(CCCl)CCCl)cc1C(=O)/C=C/c1cc(OC)c(OC)c(OC)c1 [Compound 18e, (E)-N,N-bis(2-Chloroethyl)-2,4-dimethoxy-5-(3-(3,4,5-trimethoxyphenyl)acryloyl)benzenesulfonamide] | 14.8 | > 100 | 3 | > 100 | 3.54 | 6.88 | > 100 | > 100 | > 100 | > 100 | > 100 | > 100 | 13 | > 100 | 5.66 | > 100 | 4.65 | 27.6 | 1.3 | > 100 | GI% (HS 578T; HS 578T, single dose 10 μM): 21.70%; lethality (SK-MEL-2; SK-MEL-2, single dose 10 μM): 94.49%; IC50 (HT29): 5.92 µM; CC50 (HT29): > 100 µM; IC50 (SNB-19): 5.71 µM; CC50 (SNB-19): 45.7 µM; IC50 (SF-268): 7.7 µM; CC50 (SF-268): > 100 µM; IC50 (ACHN): 6.16 µM; CC50 (ACHN): > 100 µM; IC50 (SK-OV-3): 13 µM; CC50 (SK-OV-3): > 100 µM; IC50 (OVCAR-3): 6.62 µM; CC50 (OVCAR-3): > 100 µM; IC50 (IGROV1): 9.05 µM; CC50 (IGROV1): > 100 µM; IC50 (UACC-62): 4.94 µM; CC50 (UACC-62): > 100 µM

Source: PMC9604400, “Synthesis, Anticancer and Antitubercular Properties of New Chalcones and Their Nitrogen-Containing Five-Membered Heterocyclic Hybrids Bearing Sulfonamide Moiety” (International Journal of Molecular Sciences, 2022)
